In one assay the target is T1, CCK receptor (pancreas) (Rattus norvegicus, UniProt P30551).
T1 construct: The whole pancreas was dissected free of fat tissue and was homogenized; from tissue; host or cells: rat pancreas membranes (male Sprague-Dawley)
T1 sequence (P30551 1-444): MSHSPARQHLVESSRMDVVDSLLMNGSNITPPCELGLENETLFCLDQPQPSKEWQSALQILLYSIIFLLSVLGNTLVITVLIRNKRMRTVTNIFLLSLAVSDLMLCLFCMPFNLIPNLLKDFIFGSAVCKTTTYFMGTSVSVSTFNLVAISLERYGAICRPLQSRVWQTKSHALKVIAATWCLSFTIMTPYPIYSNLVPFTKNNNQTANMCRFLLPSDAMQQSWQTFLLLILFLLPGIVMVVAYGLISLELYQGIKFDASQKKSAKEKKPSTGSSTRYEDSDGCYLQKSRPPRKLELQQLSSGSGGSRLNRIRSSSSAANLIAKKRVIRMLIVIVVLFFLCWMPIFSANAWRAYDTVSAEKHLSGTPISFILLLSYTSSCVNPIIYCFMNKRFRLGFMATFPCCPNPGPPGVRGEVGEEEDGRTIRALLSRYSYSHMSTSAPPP
As to the kind of experiment: CCK Receptor Binding (Pancreas), inhibition of 125I-CCK-8 binding. On the set-up: species or system rat (male Sprague-Dawley). Particulars: rat pancreas membranes; 50 pM 125I-CCK-8; pH 6.5; 25° C., 2 hours. As to the method:
1. CCK Receptor Binding (Pancreas)
CCK-8 sulphated was radiolabelled with ^125 I-Bolton Hunter reagent (2000 Ci/mmole). Receptor binding was performed according to Chang and Lotti (Proc. Natl. Acad. Sci. 83, 4923-4926, 1986) with minor modifications.
Male Sprague-Dawley rats (150-200 g) were sacrificed by decapitation. The whole pancreas was dissected free of fat tissue and was homogenized in 25 volumes of ice-cold 10 mM N-2-hydroxyethyl-piperazine-N'-2-ethane sulphonic acid (HEPES) buffer with 0.1% soya bean trypsin inhibitor (pH 7.4 at 25° C.) with a Kinematica Polytron. The homogenates were centrifuged at 47,800 g for 10 min. Pellets were resuspended in 10 volumes of binding assay buffer (20 mM (HEPES)), 1 mM ethylene glycol-bis-(β-aminoethylether-N,N'-tetraacetic acid) (EGTA), 5 mM MgCl2, 150 mM NaCl, bacitracin 0.25 ml/ml, soya bean trypsin inhibitor 0.1 ml/ml, and bovine serum albumin 2 ml/ml pH 6.5 at 25° C.) using a Teflon (trademark) homogenizer, 15 strokes at 500 rpm. The homogenate was further diluted in binding assay buffer to give a final concentration of 0.5 ml original wet weight/1 ml buffer. For the binding assay, 50 μl of buffer (for total binding) or unlabelled CCK-8 sulphated to give a final concentration of 1 μM (for nonspecific binding) or the compounds of Formula I (for determination of inhibition of ^125 I-CCK-8 binding) and 50 μl of 500 pM ^125 I-CCK-8 (i.e. 50 pM final concentration) were added to 400 μl of the membrane suspensions in microfuge tubes. All assays were run in duplicate. The reaction mixtures were incubated at 25° C. for 2 hours and the reaction terminated by rapid filtration (Brandell 24 well cell harvester) over Whatman GF/C filters, washing 3×4 mls with ice-cold 100 Mm NaCl. The radioactivity on the filters was counted with a LKB gamma counter.
The preferred compounds of Formula I are those which produced dose-dependent inhibition of specific ^125 I-CCK-8 binding as defined as the difference between total and non-specific (i.e. in the presence of 1 μM CCK) binding. […]

The target of the next assay is T2, CCK receptor (brain) (Cavia porcellus, UniProt H0VZC5).
T2 construct: the cortex was removed and homogenized in 25 mL ice-cold 0.32M sucrose; from tissue; host or cells: guinea pig cerebral cortex P2 membranes (male Hartley)
T2 sequence (H0VZC5 1-426): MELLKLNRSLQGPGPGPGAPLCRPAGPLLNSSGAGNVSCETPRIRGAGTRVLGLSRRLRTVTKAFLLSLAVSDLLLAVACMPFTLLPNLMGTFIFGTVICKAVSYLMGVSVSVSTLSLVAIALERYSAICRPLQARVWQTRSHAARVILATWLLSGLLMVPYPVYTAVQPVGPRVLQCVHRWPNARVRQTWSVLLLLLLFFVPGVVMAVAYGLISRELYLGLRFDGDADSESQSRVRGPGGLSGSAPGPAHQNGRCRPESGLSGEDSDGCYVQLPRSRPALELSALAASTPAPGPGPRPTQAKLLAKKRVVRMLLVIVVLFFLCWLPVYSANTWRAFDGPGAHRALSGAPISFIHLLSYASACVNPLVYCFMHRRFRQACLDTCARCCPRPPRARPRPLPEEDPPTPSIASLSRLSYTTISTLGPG
Description: CCK Receptor Binding (Brain), inhibition of 125I-CCK-8 binding. On the set-up: species or system guinea pig (male Hartley). Particulars: guinea pig cortex membranes; 50 pM 125I-CCK-8; pH 6.5; 25° C., 2 hours. As to the method:
2. CCK Receptor Binding (Brain)
CCK-8 sulphated was radiolabelled and the binding was performed according to the description for the pancreas method with minor modifications.
Male Hartley guinea pigs (300-500 g) were sacrificed by decapitation and the cortex was removed and homogenized in 25 mL ice-cold 0.32M sucrose. The homogenates were centrifuged at 1000 g for 10 minutes and the resulting supernatant was recentrifuged at 20,000 g for 20 minutes. The P2 pellet was resuspended in binding assay buffer (20 mM HEPES, 5 mMMgCl2, 0.25 ml/ml bacitracin, 1 mM EGTA pH 6.5 at 25° C.), using a Teflon (trademark) homogenizer (5 strokes at 500 rpm) to give a final concentration of […] original wet weight/1.2 ml buffer. For the binding assay, 50 μl of buffer (for total binding) or unlabelled CCK-8 sulphated to give a final concentration of 1 μM (for nonspecific binding) or the compounds of Formula I (for determination of inhibition of ^125 I-CCK-8 binding) and 50 μl of 500 pM ^125 I-CCK-8 (i.e. final concentration of 50 pM) were added to 400 μl of the membrane suspensions in microfuge tubes. All assays were run in duplicate. The reaction mixtures were incubated at 25° C. for 2 hours and then the reaction was terminated by rapid filtration (Brandell 24 well cell harvester) on Whatman GF/C filters with 3×5 ml washes of cold 100 mM NaCl. The radioactivity on the filters was counted with a LKB gamma counter.
The preferred compounds of Formula I are those which produced dose-dependent inhibition of specific ^125 I-CCK-8 binding as defined as the difference between total and non-specific (i.e. in the presence of 1 μM CCK) binding.
Drug displacement studies were performed with at least 10 concentrations of compounds of Formula I and the IC50 values were determined by regression analysis IC50 refers to the concentration of the compound required to inhibit 50% of specific binding of ^125 I-CCK-8.

IC50 data for 3 compounds are collected here from patent US5451582A, “Benzodiazepine derivatives, compositions containing them and their use in therapy” (Merck Sharp & Dohme Ltd., priority 1992, dated 1995).

A value given as a limit tells only on which side of the number the result lay.

Consider `CC(C)CN1C(=O)C(NC(=O)Nc2cccc(-c3nn[nH]n3)c2)N=C(C(C)C)c2ccccc21` (racemic) [Example 2, N-[3(R,S)-2,3-Dihydro-1-(2-methylpropyl)-2-oxo-5-(2-propyl) -1H-1,4-benzodiazepin-3-yl]N'-[3-tetrazol-5-ylphenyl]urea], for which the half-maximal inhibitory concentration (IC50) at CCK receptor (pancreas) is 600 nM; on CCK receptor (brain), 17 nM.
The like results for `CC(C)CN1C(=O)C(NC(=O)Nc2cccc(C(=O)NS(C)(=O)=O)c2)N=C(C(C)(C)C)c2ccccc21` (racemic) [Example 3, N-[3(R,S)-2,3-Dihydro-5-(1,1-dimethylethyl)-1-(2-methylpropyl) -2-oxo-1H-1,4-benzodiazepin-3yl]N'-(3-(methylsulphonylaminocarbonyl)phenyl]urea] were, in that order, 612 nM and 32 nM.
For `CC1=NC(NC(=O)Nc2cccc(-c3nn[nH]n3)c2)C(=O)N(C)c2ccccc21` (racemic) [Example 1, N-[3(R,S)-2,3-Dihydro-1,5-dimethyl-2-oxo-1H-1,4-benzodiazepin-3-yl]N'-[3-tetrazol-5-ylphenyl]urea], in that order: over 3000 nM and 104 nM.

Broadly, the IC50 is the concentration needed to halve the response being measured. High values mean lower potency, low ones higher potency.
